The source of these data is US8278455B2, “5- or 6-substituted benzimidazole derivatives as inhibitors of respiratory syncytial virus replication” (Janssen Pharmaceutica N.V., priority 2003, dated 2012).

The subject of one assay is Respiratory Syncytial Virus. Nature of the assay: In vitro screening for activity against Respiratory Syncytial Virus (MTT tetrazolium colorimetric assay, HeLa cells). Type of assay: cell-based. The settings on record: human respiratory syncytial virus, 168 h; protection against RSV cytopathology in HeLa cells, 7 days after infection; pEC50 = −log of EC50 in molar units. The text has this:
The percent protection against cytopathology caused by viruses (antiviral activity or EC50) achieved by tested compounds and their cytotoxicity (CC50) are both calculated from dose-response curves. The selectivity of the antiviral effect is represented by the selectivity index (SI), calculated by dividing the CC50 (cytotoxic dose for 50% of the cells) by the EC50 (antiviral activity for 50% of the cells). The tables in the above experimental part list the category to which each of the prepared compounds belong. Compounds belonging to activity category “A” have an pEC50 (−log of EC50 when expressed in molar units) equal to or more than 7. Compounds belonging to activity category “B” have a pEC50 value between 6 and 7.
Automated tetrazolium-based […] assays were used for determination of EC50 and CC50 of test compounds. Flat-bottom, 96-well plastic microtiter trays were filled with 180 μl of Eagle's Basal Medium, supplemented with 5% FCS (0% for FLU) and 20 mM Hepes buffer. Subsequently, stock solutions (7.8× final test concentration) of compounds were added in 45 μl volumes to a series of triplicate wells so as to allow simultaneous evaluation of their effects on virus- and mock-infected cells. Five five-fold dilutions were made directly in the microtiter trays using a robot system. Untreated virus controls, and HeLa cell controls were included in each test. Approximately 100 TCID50 of Respiratory Syncytial Virus was added to two of the three rows in a volume of 50 μl. The same volume of medium was added to the third row to measure the cytotoxicity of the compounds at the same concentrations as those used to measure the antiviral activity. After two hours of incubation, a suspension (4×10^5 cells/ml) of HeLa cells was added to all wells in a volume of 50 μl. The cultures were incubated at 37° C. in a 5% CO2 atmosphere. Seven days after infection the cytotoxicity and the antiviral activity was examined spectrophotometrically. To each well of the microtiter tray, 25 μl of a solution of MTT (3-(4,5-dimethylthiazol-2-yl)-2,5-diphenyltetrazolium bromide) was added. The trays were further incubated at 37° C. for 2 hours, after which the medium was removed from each cup. Solubilization of the formazan crystals was achieved by adding 100 μl 2-propanol. Complete dissolution of the formazan crystals were obtained after the trays have been placed on a plate shaker for 10 min. Finally, the absorbances were read in an eight-channel computer-controlled photometer (Multiskan MCC, Flow Laboratories) at two wavelengths (540 and 690 nm). The absorbance measured at 690 nm was automatically subtracted from the absorbance at 540 nm, so as to eliminate the effects of non-specific absorption.
On the technique in general: Tetrazolium assays rely on reduction of a dye to a coloured formazan, in cell work by metabolically active cells.
One may read the EC50 as the concentration that produces a half-maximal response. A low value points to an effect from little substance. The compound `Cc1ccc(O)c(Cn2c(NC3CCN(C)CC3)nc3ccc(CNc4cc(Cl)cc(Cl)c4)cc32)n1` [Compound 2, 2-[6-[(3,5-dichloro-phenylamino)-methyl]-2-(1-methyl-piperidin-4-ylamino)-benzoimidazol-1-ylmethyl]-6-methyl-pyridin-3-ol] showed an EC50 of 2 nM.

Still in this assay, the particulars now being: protection against RSV cytopathology in HeLa cells, 7 days after infection; pEC50 = −log of EC50 in molar units.
Compound “2-[6-[(1-ethylidene-3-methyl-penta-2,4-dienylamino)-methyl]-2-(1-methyl-piperidin-4-ylamino)-benzoimidazol-1-ylmethyl]-6-methyl-pyridin-3-ol [Compound 9]” had an Activity of 8.3.
Same read-out and setting: with `Cc1cc(C)cc(N(CCO)Cc2ccc3nc(NC4CCN(C)CC4)n(Cc4nc(C)ccc4O)c3c2)c1` [Compound 1] the figure was 9.4.
As for `Cc1cc(C)cc(NCc2ccc3nc(NC4CCN(C)CC4)n(Cc4nc(C)ccc4O)c3c2)c1` [Compound 3], the Activity turned out to be 8.6.
Take `Cc1ccc(O)c(Cn2c(NC3CCN(C)CC3)nc3ccc(CN(CCO)c4ccccc4)cc32)n1` [Compound 4]: the Activity worked out at 8.5.
`Cc1cc(C)cc(N(CCN(C)C)Cc2ccc3nc(NC4CCN(C)CC4)n(Cc4nc(C)ccc4O)c3c2)c1` [Compound 5] returned an Activity of 8.5.
`Cc1ccc(O)c(Cn2c(NC3CCN(C)CC3)nc3ccc(CNc4cccc(Br)c4)cc32)n1` [Compound 6] came in with an Activity of 8.4.
Take `Cc1ccc(O)c(Cn2c(NC3CCN(C)CC3)nc3ccc(CNc4ccccc4CO)cc32)n1` [Compound 7]: the Activity was found to be 8.4.
In turn, `CCc1ccccc1NCc1ccc2nc(NC3CCN(C)CC3)n(Cc3nc(C)ccc3O)c2c1` [Compound 8] gave an Activity of 8.4.
The compound `Cc1ccc(O)c(Cn2c(NC3CCN(C)CC3)nc3ccc(CNc4ccc(S(N)(=O)=O)cc4)cc32)n1` [Compound 10] returned an Activity of 8.3.
`Cc1ccc(O)c(Cn2c(NC3CCN(C)CC3)nc3ccc(CNc4cccc(Cl)c4)cc32)n1` [Compound 11]: the Activity stood at 8.2.
In turn, `Cc1ccc(O)c(Cn2c(NC3CCN(C)CC3)nc3ccc(CNc4ccc(C#N)cc4)cc32)n1` [Compound 12] returned an Activity of 8.2.
Still for that read-out and setting: with `C#Cc1cccc(NCc2ccc3nc(NC4CCN(C)CC4)n(Cc4nc(C)ccc4O)c3c2)c1` [Compound 13] the figure was 8.1.
`Cc1ccc(O)c(Cn2c(NC3CCN(C)CC3)nc3ccc(CNc4ccccc4C(N)=O)cc32)n1` [Compound 14]: the Activity worked out at 8.1.
On the same count and under the same terms, with `CCc1cccc(NCc2ccc3nc(NC4CCN(C)CC4)n(Cc4nc(C)ccc4O)c3c2)c1` [Compound 15] the figure was 8; with `Cc1ccc(O)c(Cn2c(NC3CCN(C)CC3)nc3ccc(CN(c4ccccc4)c4ccc(O)cc4)cc32)n1` [Compound 16], 8.
On the same count and under the same terms, with `CC(=O)c1ccc(NCc2ccc3nc(NC4CCN(C)CC4)n(Cc4nc(C)ccc4O)c3c2)cc1` [Compound 17] the figure was 8.
Regarding `Cc1ccc(O)c(Cn2c(NC3CCN(C)CC3)nc3ccc(CNc4cccc(F)c4)cc32)n1` [Compound 18], the Activity was 7.9.
`CC(=O)c1cccc(NCc2ccc3nc(NC4CCN(C)CC4)n(Cc4nc(C)ccc4O)c3c2)c1` [Compound 19] returned an Activity of 7.9.
On the same count and under the same terms, the value for `Cc1ccc(O)c(Cn2c(NC3CCN(C)CC3)nc3ccc(CNc4cccc(C)c4C)cc32)n1` [Compound 20] was 7.9; that for `Cc1ccc(O)c(Cn2c(NC3CCN(C)CC3)nc3ccc(CNc4ccccc4C(C)C)cc32)n1` [Compound 21] was 7.9.
Same read-out and setting: with `Cc1ccc(O)c(Cn2c(NC3CCN(C)CC3)nc3ccc(CNc4ccccc4Br)cc32)n1` [Compound 22] the figure was 7.9; with `Cc1ccc(O)c(Cn2c(NC3CCN(C)CC3)nc3ccc(CNc4ccccc4F)cc32)n1` [Compound 23], 7.9.
As for `CCOC(=O)c1ccc(NCc2ccc3nc(NC4CCN(C)CC4)n(Cc4nc(C)ccc4O)c3c2)c(O)c1` [Compound 24], the Activity is 7.9.
Regarding `CSc1cccc(NCc2ccc3nc(NC4CCN(C)CC4)n(Cc4nc(C)ccc4O)c3c2)c1` [Compound 25], the Activity turned out to be 7.9.
`Cc1ccc(O)c(Cn2c(NC3CCN(C)CC3)nc3ccc(CNc4ccc(F)cc4)cc32)n1` [Compound 26] gave an Activity of 7.9.
Same read-out and setting: with `Cc1ccc(O)c(Cn2c(NC3CCN(C)CC3)nc3ccc(CN(Cc4cnc[nH]4)c4ccc(Cl)cc4)cc32)n1` [Compound 27] the figure was 7.9; with `Cc1ccc(O)c(Cn2c(NC3CCN(C)CC3)nc3ccc(CCc4ccccc4)cc32)n1` [Compound 29], 7.8.
Same read-out and setting: the value for `Cc1ccc(O)c(Cn2c(NC3CCN(C)CC3)nc3ccc(CNc4ccccc4)cc32)n1` [Compound 30] was 7.8; that for `Cc1ccc(O)c(Cn2c(NC3CCN(C)CC3)nc3ccc(CNc4cccc5cccnc45)cc32)n1` [Compound 31] was 7.8.
For the compound `Cc1ccc(O)c(Cn2c(NC3CCN(C)CC3)nc3ccc(CNc4ccc5c(c4)OCCO5)cc32)n1` [Compound 32], the Activity is listed as 7.8.
`Cc1ccc(O)c(Cn2c(NC3CCN(C)CC3)nc3ccc(CNc4ccc(CC#N)cc4)cc32)n1` [Compound 34]: the Activity is given as 7.8.
In turn, `COc1cc(NCc2ccc3nc(NC4CCN(C)CC4)n(Cc4nc(C)ccc4O)c3c2)cc(OC)c1` [Compound 36] displayed an Activity of 7.7.
Compound `Cc1ccc(NCc2ccc3nc(NC4CCN(C)CC4)n(Cc4nc(C)ccc4O)c3c2)cc1` [Compound 37] gave an Activity of 7.7.
On the same count and under the same terms, with `Cc1ccc(O)c(Cn2c(NC3CCN(C)CC3)nc3ccc(CNc4ccc(Br)cc4)cc32)n1` [Compound 38] the figure was 7.7.
Regarding `Cc1ccc(O)c(Cn2c(NC3CCN(C)CC3)nc3ccc(CN(CC(=O)O)c4ccccc4)cc32)n1` [Compound 39], the Activity is recorded as 7.7.
`Cc1ccc(O)c(Cn2c(NC3CCN(C)CC3)nc3ccc(CNc4cccc(Cl)c4C)cc32)n1` [Compound 40] yielded an Activity of 7.6.
As for `Cc1ccc(O)c(Cn2c(NC3CCN(C)CC3)nc3ccc(CNc4ccc(C)c(C)c4)cc32)n1` [Compound 41], the Activity is recorded as 7.6.
The compound `Cc1ccc(O)c(Cn2c(NC3CCN(C)CC3)nc3ccc(CNc4ccccc4-c4ccccc4)cc32)n1` [Compound 42] displayed an Activity of 7.6.
On the same count and under the same terms, the value for `CCc1cc(C#N)ccc1NCc1ccc2nc(NC3CCN(C)CC3)n(Cc3nc(C)ccc3O)c2c1` [Compound 43] was 7.6; that for `Cc1ccc(O)c(Cn2c(NC3CCN(C)CC3)nc3ccc(CNc4ccc5c(c4)CCC5)cc32)n1` [Compound 45] was 7.5.
Same read-out and setting: with `Cc1ccc(O)c(Cn2c(NC3CCN(C)CC3)nc3ccc(CNc4c(F)cccc4F)cc32)n1` [Compound 46] the figure was 7.5.
In turn, `CCc1cccc(C)c1NCc1ccc2nc(NC3CCN(C)CC3)n(Cc3nc(C)ccc3O)c2c1` [Compound 47] gave an Activity of 7.5.
Still for that read-out and setting: with `Cc1ccc(O)c(Cn2c(NC3CCN(C)CC3)nc3ccc(CNc4ccc(Br)cc4F)cc32)n1` [Compound 48] the figure was 7.5; with `CC(=O)Nc1cccc(NCc2ccc3nc(NC4CCN(C)CC4)n(Cc4nc(C)ccc4O)c3c2)c1` [Compound 49], 7.4.
The compound `Cc1ccc(O)c(Cn2c(NC3CCN(C)CC3)nc3ccc(CNc4ccc(F)c(F)c4)cc32)n1` [Compound 50] returned an Activity of 7.4.
For `Cc1ccc(O)c(Cn2c(NC3CCN(C)CC3)nc3ccc(CN(C)c4ccccc4)cc32)n1` [Compound 51], the Activity was 7.4.
Regarding `CCc1cccc(CC)c1NCc1ccc2nc(NC3CCN(C)CC3)n(Cc3nc(C)ccc3O)c2c1` [Compound 52], the Activity was determined as 7.4.
As for `CC(=O)Nc1ccc(NCc2ccc3nc(NC4CCN(C)CC4)n(Cc4nc(C)ccc4O)c3c2)cc1` [Compound 53], the Activity is on record as 7.4.
Turning to `CCOC(=O)c1ccc(NCc2ccc3nc(NC4CCN(C)CC4)n(Cc4nc(C)ccc4O)c3c2)cc1` [Compound 54], the Activity is recorded as 7.4.
Regarding `Cc1ccc(O)c(Cn2c(NC3CCN(C)CC3)nc3cc(NC(=O)c4cccnc4)ccc32)n1` [Compound 55], the Activity came to 7.3.
`Cc1ccc(O)c(Cn2c(NC3CCN(C)CC3)nc3ccc(NCc4ccccc4)cc32)n1` [Compound 56] returned an Activity of 7.3.
As to `CCOC(=O)c1cccc(NCc2ccc3nc(NC4CCN(C)CC4)n(Cc4nc(C)ccc4O)c3c2)c1` [Compound 57], the Activity is 7.3.
